In brackets after ≈: the same amount, converted by molar mass.
How the values were obtained:
Staphylococcus aureus = assay: Antibacterial activity against Staphylococcus aureus ATCC 25923 incubated for 16 to 20 hrs; format: functional; settings: time 16-20 hrs
Enterococcus faecium = assay: Antibacterial activity against Enterococcus faecium ATCC 19434 incubated for 16 to 20 hrs; format: functional; settings: time 16-20 hrs
Enterococcus faecalis = assay: Antibacterial activity against Enterococcus faecalis ATCC 19433 incubated for 16 to 20 hrs; format: functional; settings: time 16-20 hrs
Klebsiella pneumoniae = assay: Antibacterial activity against Klebsiella pneumoniae ATCC 10031 incubated for 16 to 20 hrs; format: functional; settings: time 16-20 hrs
Escherichia coli = assay: Antibacterial activity against Escherichia coli ATCC 25922 incubated for 16 to 20 hrs; format: functional; settings: time 16-20 hrs
Candida albicans = assay: Antifungal activity against Candida albicans ATCC 10231 incubated for 16 to 20 hrs; format: functional; settings: time 16-20 hrs
Aspergillus fumigatus = assay: Antifungal activity against Aspergillus fumigatus HIC6094 incubated for 16 to 20 hrs; format: functional; settings: time 16-20 hrs
Trichophyton rubrum = assay: Antifungal activity against Trichophyton rubrum NBRC9185 incubated for 16 to 20 hrs; format: functional; settings: time 16-20 hrs
[1] = test system: Trichophyton mentagrophytes; assay: Antifungal activity against Trichophyton mentagrophytes IFM40996 incubated for 16 to 20 hrs; format: functional; settings: time 16-20 hrs
Salmonella enterica = assay: microbe, parasite or virus in culture; settings: ATCC 14028
Description: Antibacterial activity against Salmonella enterica ATCC 14028 incubated for 16 to 20 hrs

Row | Structure (SMILES) | MIC (Staphylococcus aureus) [µg/mL] | MIC (Enterococcus faecium) [µg/mL] | MIC (Enterococcus faecalis) [µg/mL] | MIC (Klebsiella pneumoniae) [µg/mL] | MIC (Escherichia coli) [µg/mL] | MIC (Candida albicans) [µg/mL] | MIC (Aspergillus fumigatus) [µg/mL] | MIC (Trichophyton rubrum) [µg/mL] | MIC [1] [µg/mL] | MIC (Salmonella enterica) [µg/mL]
1 | CCCCCC/C=C\C[C@@H]1CC(=O)N[C@H](CC(C)C)C(=O)N[C@@H](CO)C(=O)N[C@@H]([C@@H](C)O)C(=O)N[C@H](Cc2ccccc2)C(=O)N[C@@H]([C@H](C)CC)C(=O)O1 | 16 (≈ 21.1 µM) | 32 (≈ 42.2 µM) | 32 (≈ 42.2 µM) | > 128 | > 128 | > 128 | > 128 | > 128 | > 128 | 8 (≈ 10.6 µM)
2 | CCCCCCCCC[C@@H]1CC(=O)N[C@H](CC(C)C)C(=O)N[C@@H](CO)C(=O)N[C@@H]([C@@H](C)O)C(=O)N[C@H](Cc2ccccc2)C(=O)N[C@@H]([C@H](C)CC)C(=O)O1 | 16 (≈ 21.1 µM) | 32 (≈ 42.1 µM) | 64 (≈ 84.2 µM) | > 128 | > 128 | > 128 | > 128 | > 128 | > 128 | 16 (≈ 21.1 µM)
3 | CCCCCCC[C@@H]1CC(=O)N[C@H](CC(C)C)C(=O)N[C@@H](CO)C(=O)N[C@@H]([C@@H](C)O)C(=O)N[C@H](Cc2ccc(O)cc2)C(=O)N[C@@H](C(C)C)C(=O)O1 | > 128 | > 128 | > 128 | > 128 | > 128 | > 128 | > 128 | > 128 | > 128 | > 128
4 | CCCCCCC[C@@H]1CC(=O)N[C@H](CC(C)C)C(=O)N[C@@H](CO)C(=O)N[C@@H]([C@@H](C)O)C(=O)N[C@H](Cc2ccccc2)C(=O)N[C@@H]([C@H](C)CC)C(=O)O1 | 32 (≈ 43.7 µM) | 32 (≈ 43.7 µM) | 32 (≈ 43.7 µM) | > 128 | > 128 | > 128 | > 128 | > 128 | > 128 | 32 (≈ 43.7 µM)
5 | CCCCCCC[C@@H](O)CC(=O)N[C@H](CC(C)C)C(=O)N[C@@H](CO)C(=O)N[C@H](C(=O)N[C@H](Cc1ccccc1)C(=O)N[C@H](C(=O)OC)[C@H](C)CC)[C@@H](C)O | > 128 | > 128 | > 128 | > 128 | > 128 | > 128 | > 128 | > 128 | > 128 | > 128
6 | C[C@@H]1[C@H](O)[C@@H](C)/C=C/C=C/C=C/C=C/C=C/C=C/C=C/[C@H](O[C@@H]2O[C@H](C)[C@@H](O)[C@H](N)[C@@H]2O)C[C@@H]2O[C@](O)(C[C@@H](O)C[C@@H](O)[C@H](O)CC[C@@H](O)C[C@@H](O)CC(=O)O[C@H]1C)C[C@H](O)[C@H]2C(=O)O [AMPHOTERICIN B] |  |  |  |  |  | 0.5 (≈ 0.541 µM) | 1 (≈ 1.08 µM) | 1 (≈ 1.08 µM) | 1 (≈ 1.08 µM) | 
7 | CC1(C)S[C@@H]2[C@H](NC(=O)[C@H](N)c3ccccc3)C(=O)N2[C@H]1C(=O)O [AMPICILLIN] | 0.13 (≈ 0.372 µM) | 0.5 (≈ 1.43 µM) | 0.5 (≈ 1.43 µM) | > 128 | 8 (≈ 22.9 µM) |  |  |  |  | 0.5 (≈ 1.43 µM)
8 | CN(C)[C@@H]1C(O)=C(C(N)=O)C(=O)[C@@]2(O)C(O)=C3C(=O)c4c(O)cccc4[C@@](C)(O)[C@H]3C[C@@H]12 [TETRACYCLINE] |  |  |  | 0.25 (≈ 0.563 µM) |  |  |  |  |  | 

Source: ChEMBL document CHEMBL5634180, “Serratiomycins D1-D3, Antibacterial Cyclic Peptides from a Serratia sp. and Structure Revision of Serratiomycin” (2024)
